Experimental findings from patent publication US20140120063A1, “NUTRITIONAL AND METABOLIC APPROACHES TO PREVENT EMERGENCE OF ENTERIC PATHOGENS” (The Board of Trustees of the Leland Stanford Junior …, priority 2012, published 2014) are described below.

For one data set, the system named is C. difficile nanE. Description: C. difficile nanE gene expression (qRT-PCR) in feces of mice given exogenous free sialic acid. The following applies: sialic acid-fed Bt-ΔBT0455-associated mice, 1 day post-infection. It counts as in vivo. Here is the method: (§1) For sialic acid administration experiments, N-acetylneuraminic acid (Calbiochem or Santa Cruz Biotechnology) was administered in the water at a 1% concentration. Additionally, mice were orally gavaged 1 mg of sialic acid twice a day. The amount of sialic acid in the cecal contents were calculated to equal approximately 700 pmoles/mg of cecal contents, which mirrors the average concentration of free sialic acids we quantified post-antibiotic treatment (725 pmoles/mg).
qRT-PCR analysis was performed on RNA extracted from cecal or fecal contents by phenolchloroform extraction and bead beating. Superscript II (Invitrogen) was utilized to convert RNA to cDNA, and SYBR Green (ABgene) in a MX3000P thermocycler (Strategene) was utilized. Fold changes were normalized to in vitro growths in Minimal Medium containing 0.5% glucose (MM-G) for C. difficile and LB for S. typhimurium.

Data set [1] is described as follows: Amount of sialic acid in cecal contents after sialic acid administration. It counts as in vivo, mice. The following applies: 1% in water plus 1 mg oral gavage twice a day. The procedure:
as §1
All steps were carried out at 4° C. to minimize enzymatic hydrolysis. Approximately 200 mg of flash-frozen cecal contents were weighed out and resuspended in 400 μl dH2O, Samples were vortexed for 30 minutes at max speed and centrifuged for 15 minutes at 14,000×g in the tabletop centrifuge.
The supernatant was stored, and the pellet resuspended in an additional 400 μl dH2O. The tubes were vortexed individually until the pellet was dispersed, and then all samples were vortexed for 30 minutes, centrifuged, and supernatants were pooled. This process was repeated once more for a total volume of approximately 1 ml. […] The resulting product was analyzed by reverse-phase HPLC using a C18 column (Dionex) at a flow rate of 0.9 ml/min, using a gradient of 5% to 11% acetonitrile in 7% methanol. […] The DMB-derivatized sialic acids were identified and quantified by comparing elution times and peak areas to known standards.

The next data set has as its system C. difficile. Kind of data set: C. difficile density in feces of gnotobiotic mice given exogenous free sialic acid. It counts as in vivo. The procedure: (BioTek, Winooski, Vt.) every 30 minutes, at 37° C. anaerobically (6% H2, 20% CO2, 74% N2). Fecal densities (CFU) of C. difficile were quantified by duplicate sampling with 1 μl loops and subsequent dilution and spot plating on blood-BHI supplemented with erythromycin.
Germ-free Swiss-Webster mice were maintained in gnotobiotic isolators and fed an autoclaved standard diet (Purina LabDiet 5K67) or a polysaccharide-deficient diet (Sonnenburg, E. D., et al. Cell, 2010. 141(7): p. 1241-52), in accordance with A-PLAC, the Stanford IACUC. For all experiments involving C. difficile colonization of germ-free mice, the diet was switched to polysaccharide-deficient chow one day before inoculation with C. difficile.
as §1

Data set [2] has as its system S. typhimurium nanA mutant. Description: Growth of S. typhimurium nanA mutant in minimal medium in the presence of sialic acid. It counts as cell-based. The following applies: M9 minimal media, 0.25% sialic acid with glucose or glycerol. The procedure:
FIG. 8. Requirement for S. typhimurium nan and fuc operons for in vitro growth on sialic acid and fucose. A) S. typhimurium SL1344 encodes the genes necessary to catabolize sialic acid and fucose. The nan and fuc operons are pictured in their genomic context. B) Growth of wild-type S. typhimurium and mutant S. typhimurium strains in M9 minimal medium containing 0.5% glucose (M9+glucose), 0.5% sialic acid (M9+sialic acid), or 0.5% fucose (M9+fucose). OD600 measurements were taken every 30 minutes. C, D) ΔNanA E. coli (Keio strain JW3194) and wild-type and ΔNanA S. typhimurium SL1344 strains were grown aerobically in M9 minimal media containing 0.5% total carbohydrate. Cells were grown in (C) 0.5% glucose or 0.25% glucose and 0.25% sialic acid, and (D) 0.5% glycerol (gro) or 0.25% glycerol and 0.25% sialic acid. Optical densities were measured at indicated times.
All strains of S. typhimurium were derived from wild-type strain SL1344, which is naturally streptomycin-resistant. […] Fecal densities (CFU) of S. typhimurium were quantified by duplicate sampling with 1 μl loops, and subsequent dilution and spot plating on plain LB agar for gnotobiotic experiments and LB agar with streptomycin for conventional experiments.

Turning to `CC(=O)N[C@H]1[C@H]([C@H](O)[C@H](O)CO)OC(O)(C(=O)O)C[C@@H]1O` (some centres unmarked) [sialic acid, N-acetylneuraminic acid], in the data set with C. difficile nanE, the “C. difficile nanE expression, fold higher over PBS-treated controls” value is recorded as 58 fold. Also, the “amount of sialic acid in the cecal contents” value in data set [1] is listed as “approximately 700 pmoles/mg of cecal contents”. Also, the “C. difficile density in the lumen of the gut” value with C. difficile (GF mice infected with C. difficile, free sialic acid administration vs PBS, 1 day post-inoculation) is listed as “higher densities”. Further, the C. difficile density with C. difficile (feces, 1 day post-infection, Bt-ΔBT0455 monoassociated mice fed free sialic acid (1% in water plus 1 mg gavage twice a day), unsupplemented controls 6.8×10^7) is given as 4.8×10^8 CFU/ml. For the same compound, in data set [2], the “toxicity of sialic acid to the nanA mutant” value was “did not pose a toxicity issue”.
